For data set [1], the target named is T1, DNA topoisomerase 2-alpha (Homo sapiens, UniProt P11388). Briefly: Inhibition of human topoisomerase 2alpha-mediated DNA cleavage at 12.5 to 200 uM using supercoiled pSG483 as substrate after 30 mins by ethidium bromide staining based gel electrophoresis method.
For data set [2], the target named is T2, DNA topoisomerase 2-beta (Homo sapiens, UniProt Q02880). Nature of the data set: Inhibition of human topoisomerase 2beta-mediated relaxation of supercoiled pSG483 DNA at 12.5 to 200 uM after 30 mins by ethidium bromide staining based agarose gel electrophoresis method.
T2 sequence (Q02880 whole entry): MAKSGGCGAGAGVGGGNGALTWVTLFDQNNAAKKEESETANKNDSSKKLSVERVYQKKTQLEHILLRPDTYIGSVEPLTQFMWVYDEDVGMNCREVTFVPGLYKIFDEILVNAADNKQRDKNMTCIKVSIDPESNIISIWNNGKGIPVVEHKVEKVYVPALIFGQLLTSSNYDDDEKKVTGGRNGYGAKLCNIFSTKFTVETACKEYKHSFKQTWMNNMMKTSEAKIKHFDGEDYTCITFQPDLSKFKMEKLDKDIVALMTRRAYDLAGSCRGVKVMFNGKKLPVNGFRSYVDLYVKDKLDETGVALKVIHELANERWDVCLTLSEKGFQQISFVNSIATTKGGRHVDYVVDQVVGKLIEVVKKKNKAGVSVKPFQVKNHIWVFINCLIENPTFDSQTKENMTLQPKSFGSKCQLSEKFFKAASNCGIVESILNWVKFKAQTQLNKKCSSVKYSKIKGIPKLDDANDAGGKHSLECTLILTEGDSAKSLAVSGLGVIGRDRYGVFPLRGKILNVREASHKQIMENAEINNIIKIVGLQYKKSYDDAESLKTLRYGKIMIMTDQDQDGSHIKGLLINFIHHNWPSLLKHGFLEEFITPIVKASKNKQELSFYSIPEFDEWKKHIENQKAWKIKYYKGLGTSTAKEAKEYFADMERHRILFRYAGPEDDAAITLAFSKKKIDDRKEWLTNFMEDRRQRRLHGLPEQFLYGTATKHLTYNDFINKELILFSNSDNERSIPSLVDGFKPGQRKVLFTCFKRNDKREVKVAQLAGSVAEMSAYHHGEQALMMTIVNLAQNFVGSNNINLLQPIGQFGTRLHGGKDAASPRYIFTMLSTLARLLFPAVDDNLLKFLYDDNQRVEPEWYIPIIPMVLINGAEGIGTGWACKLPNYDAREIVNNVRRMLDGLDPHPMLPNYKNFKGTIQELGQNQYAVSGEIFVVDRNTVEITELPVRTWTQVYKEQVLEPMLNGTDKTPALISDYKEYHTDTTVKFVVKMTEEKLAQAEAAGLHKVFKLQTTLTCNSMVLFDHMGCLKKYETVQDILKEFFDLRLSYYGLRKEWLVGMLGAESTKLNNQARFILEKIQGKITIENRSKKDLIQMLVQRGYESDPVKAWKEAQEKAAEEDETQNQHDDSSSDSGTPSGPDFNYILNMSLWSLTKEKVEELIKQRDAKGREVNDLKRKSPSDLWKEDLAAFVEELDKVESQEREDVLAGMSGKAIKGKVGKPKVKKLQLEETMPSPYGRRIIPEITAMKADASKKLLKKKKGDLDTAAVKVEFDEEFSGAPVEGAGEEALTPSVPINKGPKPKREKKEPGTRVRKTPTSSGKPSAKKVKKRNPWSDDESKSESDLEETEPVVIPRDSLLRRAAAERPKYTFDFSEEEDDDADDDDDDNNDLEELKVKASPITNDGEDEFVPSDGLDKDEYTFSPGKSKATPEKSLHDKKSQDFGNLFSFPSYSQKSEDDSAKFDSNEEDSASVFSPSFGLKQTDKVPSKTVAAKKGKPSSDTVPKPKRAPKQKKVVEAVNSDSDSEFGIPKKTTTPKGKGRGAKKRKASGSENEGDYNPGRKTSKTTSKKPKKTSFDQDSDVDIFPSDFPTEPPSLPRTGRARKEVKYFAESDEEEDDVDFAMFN
The target of data set [3] is T1, DNA topoisomerase 2-alpha. Nature of the data set: Mixed-type inhibition of topoisomerase 2alpha ATPase activity (unknown origin) assessed as apparent Vmax per mg protein at 20 uM using salmon sperm DNA as substrate measured every 30 secs for 90 mins in presence of ATP by pyruvate kinase/lactate dehydrogenase enzyme coupled assay (reference value: 136.7 +/- 14.7 mM/min).

The target in data set [4] is T2, DNA topoisomerase 2-beta. Nature of the data set: Inhibition of human topoisomerase 2beta-mediated DNA cleavage at 12.5 to 200 uM using supercoiled pSG483 as substrate after 30 mins by ethidium bromide staining based gel electrophoresis method.
The target of data set [5] is T1, DNA topoisomerase 2-alpha. Briefly: Inhibition of human topoisomerase 2alpha-mediated relaxation of supercoiled pSG483 DNA at 12.5 to 200 uM after 30 mins by ethidium bromide staining based agarose gel electrophoresis method.
Data set [6] concerns the target T2, DNA topoisomerase 2-beta. Briefly: Inhibition of human topoisomerase 2beta-mediated DNA cleavage assessed as formation of nicking in DNA at 200 uM using supercoiled pSG483 as substrate after 30 mins by ethidium bromide based gel electrophoresis method.
Data set [7] has as its target T1, DNA topoisomerase 2-alpha. Briefly: Mixed-type inhibition of topoisomerase 2alpha ATPase activity (unknown origin) assessed as apparent Vmax per mg protein at 25 uM using salmon sperm DNA as substrate measured every 30 secs for 90 mins in presence of ATP by pyruvate kinase/lactate dehydrogenase enzyme coupled assay (reference value: 136.7 +/- 14.7 mM/min).
The subject of the next data set is DNA. Briefly: Induction of plasmid DNA (unknown origin) intercalation at 7.81 to 500 uM after 30 mins by ethidium bromide staining based agarose gel electrophoresis method. It counts as nucleic-acid assay.
For data set [8], the target named is T1, DNA topoisomerase 2-alpha. Nature of the data set: Mixed-type inhibition of topoisomerase 2alpha ATPase activity (unknown origin) assessed as apparent Vmax per mg protein at 50 uM using salmon sperm DNA as substrate measured every 30 secs for 90 mins in presence of ATP by pyruvate kinase/lactate dehydrogenase enzyme coupled assay (reference value: 136.7 +/- 14.7 mM/min).

For data set [9], the target named is T1, DNA topoisomerase 2-alpha. Briefly: Inhibition of human topoisomerase 2alpha-mediated relaxation of supercoiled pSG483 DNA after 30 mins by ethidium bromide staining based agarose gel electrophoresis method.
In data set [10] the target is T2, DNA topoisomerase 2-beta. Briefly: Inhibition of human topoisomerase 2beta-mediated relaxation of supercoiled pSG483 DNA after 30 mins by ethidium bromide staining based agarose gel electrophoresis method.
The target in data set [11] is T1, DNA topoisomerase 2-alpha. Briefly: Poison activity at human topoisomerase 2alpha assessed as linear DNA formation at 12.5 to 200 uM after 30 mins by ethidium bromide staining based agarose gel electrophoresis method.
Compound in data set [12]: C=C(C)[C@H](CC=C(C)C)C[C@]12C[C@H](CC=C(C)C)C(C)(C)[C@](CC=C(C)C)(C(=O)C(C(=O)c3ccc(O)c(O)c3)=C1O)C2=O
Briefly: (§1) Mixed-type inhibition of topoisomerase 2alpha ATPase activity (unknown origin) assessed as apparent Km at 25 uM using salmon sperm DNA as substrate measured every 30 secs for 90 mins in presence of ATP by pyruvate kinase/lactate dehydrogenase enzyme coupled assay (reference value: 0.4 +/- 0.1 mM). As to conditions: Homo sapiens.

Compound in data set [13]: CC(C)=CCC[C@@]1(C)[C@H](CC=C(C)C)C[C@]2(CC=C(C)C)C(=O)[C@@]1(CC=C(C)C)C(=O)C(C(=O)c1ccc(O)c(O)c1)=C2O
Described as §1. To be noted: Homo sapiens.

Compound in data set [14]: CC(C)=CCC/C(C)=C/C[C@@]12C[C@H](CC=C(C)C)C(C)(C)[C@@](CC=C(C)C)(C(=O)C(C(=O)c3ccc(O)c(O)c3)=C1O)C2=O
Nature of the data set: (§2) Mixed-type inhibition of topoisomerase 2alpha ATPase activity (unknown origin) assessed as apparent Km at 5 uM using salmon sperm DNA as substrate measured every 30 secs for 90 mins in presence of ATP by pyruvate kinase/lactate dehydrogenase enzyme coupled assay (reference value: 0.4 +/- 0.1 mM). As to conditions: Homo sapiens.

Compound in data set [15]: CC(C)=CCC[C@@]1(C)[C@H](CC=C(C)C)C[C@]2(CC=C(C)C)C(=O)[C@@]1(CC=C(C)C)C(=O)C(C(=O)c1ccc(O)c(O)c1)=C2O
The data set is described as §2. As to conditions: Homo sapiens.

Compound in data set [16]: C=C(C)[C@H](CC=C(C)C)C[C@]12C[C@H](CC=C(C)C)C(C)(C)[C@](CC=C(C)C)(C(=O)C(C(=O)c3ccc(O)c(O)c3)=C1O)C2=O
Nature of the data set: Mixed-type inhibition of topoisomerase 2alpha ATPase activity (unknown origin) assessed as apparent Km at 50 uM using salmon sperm DNA as substrate measured every 30 secs for 90 mins in presence of ATP by pyruvate kinase/lactate dehydrogenase enzyme coupled assay (reference value: 0.4 +/- 0.1 mM). As to conditions: Homo sapiens.

Compound in data set [17]: CC(C)=CCC/C(C)=C/C[C@@]12C[C@H](CC=C(C)C)C(C)(C)[C@@](CC=C(C)C)(C(=O)C(C(=O)c3ccc(O)c(O)c3)=C1O)C2=O
Nature of the data set: Mixed-type inhibition of topoisomerase 2alpha ATPase activity (unknown origin) assessed as apparent Km at 20 uM using salmon sperm DNA as substrate measured every 30 secs for 90 mins in presence of ATP by pyruvate kinase/lactate dehydrogenase enzyme coupled assay (reference value: 0.4 +/- 0.1 mM). To be noted: Homo sapiens.

Compound in data set [18]: CC(C)=CCC/C(C)=C/C[C@@]12C[C@H](CC=C(C)C)C(C)(C)[C@@](CC=C(C)C)(C(=O)C(C(=O)c3ccc(O)c(O)c3)=C1O)C2=O
Briefly: (§3) Mixed-type inhibition of topoisomerase 2alpha ATPase activity (unknown origin) assessed as apparent Km at 10 uM using salmon sperm DNA as substrate measured every 30 secs for 90 mins in presence of ATP by pyruvate kinase/lactate dehydrogenase enzyme coupled assay (reference value: 0.4 +/- 0.1 mM). To be noted: Homo sapiens.

Compound in data set [19]: C=C(C)[C@H](CC=C(C)C)C[C@]12C[C@H](CC=C(C)C)C(C)(C)[C@](CC=C(C)C)(C(=O)C(C(=O)c3ccc(O)c(O)c3)=C1O)C2=O
Described as §3. As to conditions: Homo sapiens.

Compound in data set [20]: CC(C)=CCC[C@@]1(C)[C@H](CC=C(C)C)C[C@]2(CC=C(C)C)C(=O)[C@@]1(CC=C(C)C)C(=O)C(C(=O)c1ccc(O)c(O)c1)=C2O
Described as §3. As to conditions: Homo sapiens.

The source made the active and inactive calls. The rule behind the calls is not given here.

One may read the IC50 as the concentration needed to halve the response being measured. A low value points to greater potency in that assay. A word on the Km: it is the substrate concentration at which the rate is half of its maximum.

As for `CC(C)=CCC/C(C)=C/C[C@@]12C[C@H](CC=C(C)C)C(C)(C)[C@@](CC=C(C)C)(C(=O)C(C(=O)c3ccc(O)c(O)c3)=C1O)C2=O`, the inhibition result (in [1]; on DNA topoisomerase 2-beta [2]; at DNA topoisomerase 2-beta [4]; in data set [5]) was “Active” throughout. Moreover, the Vmax(app) in data set [3] is 53.6 mM/min.
Regarding `CC(C)=CCC/C(C)=C/C[C@]12C[C@H](CC=C(C)C)C(C)(C)[C@](CC=C(C)C)(C1=O)c1oc3cc(O)c(O)cc3c(=O)c1C2=O`, the inhibition result (at DNA topoisomerase 2-beta [2]; in data set [5]) was “Active” each time. For the same molecule, at DNA topoisomerase 2-beta [6], the inhibition result is “inactive”.
As to `CC(C)=CCC[C@@]1(C)[C@H](CC=C(C)C)C[C@]2(CC=C(C)C)C(=O)[C@@]1(CC=C(C)C)C(=O)C(C(=O)c1ccc(O)c(O)c1)=C2O`, the inhibition entry (in data set [1]; at DNA topoisomerase 2-beta [2]; on DNA topoisomerase 2-beta [4]; in data set [5]) was “Active” each time. The Vmax(app) in data set [7] turned out to be 93 mM/min.
For the molecule `C=C(C)[C@H](CC=C(C)C)C[C@]12C[C@H](CC=C(C)C)C(C)(C)[C@](CC=C(C)C)(C(=O)C(C(=O)c3ccc(O)c(O)c3)=C1O)C2=O`, the result (with DNA; in data set [11]) was inactive. In addition, the figures for the Vmax(app) in data set [8] and in data set [7] were 84.7 mM/min and 94 mM/min, respectively. The concentration for half-maximal inhibition (IC50) (in [9]; against DNA topoisomerase 2-beta [10]) was 101 µM in each case.
As for `CC(C)=CCC[C@@]1(C)[C@H](CC=C(C)C)C[C@]2(CC=C(C)C)C(=O)[C@@]1(CC=C(C)C)C(=O)c1c2oc2cc(O)c(O)cc2c1=O`, the inhibition result (in data set [1]; on DNA topoisomerase 2-beta [2]; on DNA topoisomerase 2-beta [4]; in data set [5]) was “Active” each time.
With `CC(C)=CCC[C@@]1(C)[C@H](CC=C(C)C)C[C@@]2(CC=C(C)C)C(=O)c3c(oc4cc(O)c(O)cc4c3=O)[C@]1(CC=C(C)C)C2=O`, the inhibition result (in [1]; on DNA topoisomerase 2-beta [2]; on DNA topoisomerase 2-beta [4]; in data set [5]) was “Active” throughout.

B1: DNA topoisomerase 2-alpha (Homo sapiens), P11388 (protein)
chain: MEVSPLQPVNENMQVNKIKKNEDAKKRLSVERIYQKKTQLEHILLRPDTYIGSVELVTQQMWVYDEDVGINYREVTFVPGLYKIFDEILVNAADNKQRDPKMSCIRVTIDPENNLISIWNNGKGIPVVEHKVEKMYVPALIFGQLLTSSNYDDDEKKVTGGRNGYGAKLCNIFSTKFTVETASREYKKMFKQTWMDNMGRAGEMELKPFNGEDYTCITFQPDLSKFKMQSLDKDIVALMVRRAYDIAGSTKDVKVFLNGNKLPVKGFRSYVDMYLKDKLDETGNSLKVIHEQVNHRWEVCLTMSEKGFQQISFVNSIATSKGGRHVDYVADQIVTKLVDVVKKKNKGGVAVKAHQVKNHMWIFVNALIENPTFDSQTKENMTLQPKSFGSTCQLSEKFIKAAIGCGIVESILNWVKFKAQVQLNKKCSAVKHNRIKGIPKLDDANDAGGRNSTECTLILTEGDSAKTLAVSGLGVVGRDKYGVFPLRGKILNVREASHKQIMENAEINNIIKIVGLQYKKNYEDEDSLKTLRYGKIMIMTDQDQDGSHIKGLLINFIHHNWPSLLRHRFLEEFITPIVKVSKNKQEMAFYSLPEFEEWKSSTPNHKKWKVKYYKGLGTSTSKEAKEYFADMKRHRIQFKYSGPEDDAAISLAFSKKQIDDRKEWLTNFMEDRRQRKLLGLPEDYLYGQTTTYLTYNDFINKELILFSNSDNERSIPSMVDGLKPGQRKVLFTCFKRNDKREVKVAQLAGSVAEMSSYHHGEMSLMMTIINLAQNFVGSNNLNLLQPIGQFGTRLHGGKDSASPRYIFTMLSSLARLLFPPKDDHTLKFLYDDNQRVEPEWYIPIIPMVLINGAEGIGTGWSCKIPNFDVREIVNNIRRLMDGEEPLPMLPSYKNFKGTIEELAPNQYVISGEVAILNSTTIEISELPVRTWTQTYKEQVLEPMLNGTEKTPPLITDYREYHTDTTVKFVVKMTEEKLAEAERVGLHKVFKLQTSLTCNSMVLFDHVGCLKKYDTVLDILRDFFELRLKYYGLRKEWLLGMLGAESAKLNNQARFILEKIDGKIIIENKPKKELIKVLIQRGYDSDPVKAWKEAQQKVPDEEENEESDNEKETEKSDSVTDSGPTFNYLLDMPLWYLTKEKKDELCRLRNEKEQELDTLKRKSPSDLWKEDLATFIEELEAVEAKEKQDEQVGLPGKGGKAKGKKTQMAEVLPSPRGQRVIPRITIEMKAEAEKKNKKKIKNENTEGSPQEDGVELEGLKQRLEKKQKREPGTKTKKQTTLAFKPIKKGKKRNPWSDSESDRSSDESNFDVPPRETEPRRAATKTKFTMDLDSDEDFSDFDEKTDDEDFVPSDASPPKTKTSPKLSNKELKPQKSVVSDLEADDVKGSVPLSSSPPATHFPDETEITNPVPKKNVTVKKTAAKSQSSTSTTGAKKRAAPKGTKRDPALNSGVSQKPDPAKTKNRRKRKPSTSDDSDSNFEKIVSKAVTSKKSKGESDDFHMDFDSAVAPRAKSVRAKKPIKYLEESDEDDLF
Consider B1, for which the Km turned out to be 700 µM in data set [12]; 1000 µM in data set [13]; 600 µM in [14]; 600 µM in data set [15]; 800 µM in data set [16]; 1600 µM in data set [17]. In addition, the Km in data set [18] was 900 µM; in data set [19], 300 µM; in [20], 800 µM.

The values above are taken from ChEMBL document CHEMBL4334509, “Garcinol and Related Polyisoprenylated Benzophenones as Topoisomerase II Inhibitors: Biochemical and Molecular Modeling Studies” (J Nat Prod, 2019).
